Results taken from US11850277B2, “Treatment of lower urinary tract epithelium with glucagon like peptide 2” (URIGEN N.A., priority 2017, dated 2023).

Experiments:
GLP-2R = biological target: T1, GLP-2R (Rattus norvegicus, UniProt Q9Z0W0); conditions: iv injected radiolabeled GLP-2, autoradiography; cited from earlier work
T1 construct: host or cells: Tissues of the living animal (kidneys, liver, gastrointestinal tract and others), endogenous receptor
T1 sequence (Q9Z0W0 1-550): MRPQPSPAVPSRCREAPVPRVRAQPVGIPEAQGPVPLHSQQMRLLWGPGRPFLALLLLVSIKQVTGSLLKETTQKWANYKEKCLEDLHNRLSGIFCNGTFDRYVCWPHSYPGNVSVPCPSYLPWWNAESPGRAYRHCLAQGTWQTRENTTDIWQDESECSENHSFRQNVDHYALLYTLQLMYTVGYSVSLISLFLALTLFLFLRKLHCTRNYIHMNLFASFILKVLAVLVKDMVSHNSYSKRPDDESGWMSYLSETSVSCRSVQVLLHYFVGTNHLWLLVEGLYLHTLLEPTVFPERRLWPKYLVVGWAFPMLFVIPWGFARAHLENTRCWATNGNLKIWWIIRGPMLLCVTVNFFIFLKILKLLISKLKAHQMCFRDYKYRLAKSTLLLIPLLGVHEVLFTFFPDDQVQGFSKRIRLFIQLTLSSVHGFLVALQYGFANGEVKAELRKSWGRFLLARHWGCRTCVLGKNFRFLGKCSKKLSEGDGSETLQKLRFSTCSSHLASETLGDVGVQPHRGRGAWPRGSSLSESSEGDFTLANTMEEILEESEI

[1] = tested on: non-tumorigenic primary human bladder epithelial cells (ATCC-PCS-420-010); assay: BrdU cell proliferation assay (BrdU incorporation into DNA); type: cell-based; conditions: cells starved 48 hours in low nutrient (0.5%) medium; for DNA synthesis as measured by BrdU incorporation: BrdU added concurrently
Description: FIG. 1 presents a histogram plot depicting results from a BrdU cell proliferation assay. Primary human bladder epithelial cells were nutrient starved as indicated and treated with GLP-2 for 24 hours at the indicated concentrations
FIG. 2 presents a histogram plot depicting results from a BrdU cell proliferation assay. Primary human bladder epithelial cells were nutrient starved as indicated and treated with GLP-2 for 48 hours at the indicated concentrations.
URG-801/GLP-2 mediated cell proliferation was detected by assaying BrdU incorporation into DNA using non-tumorigenic primary human bladder epithelial cells. An exemplary non-tumorigenic primary human bladder epithelial cell line is ATCC-PCS-420-010, which may be purchased from the American Type Culture Collection (ATCC) repository. Briefly, ATCC-PCS-420-010 cells were starved for 48 hours in low nutrient (0.5%) medium and then GLP-2 was added to the culture medium at the indicated concentrations and the cells were cultured for an additional 24 hours in the presence of GLP-2. As indicated in the timeline presented in FIG. 1, bromodeoxyuridine (BrdU) was added concurrently with the GLP-2.
To investigate further parameters affecting GLP-2 induced bladder epithelial cell proliferation, the duration of culturing in the presence of GLP-2 was extended. In this experimental protocol, ATCC-PCS-420-010 cells were starved for 48 hours in low nutrient (0.5%) medium and then GLP-2 was added to the culture medium at the indicated concentrations and the cells were cultured for ab additional 48 hours in the presence of GLP-2. As indicated in the timeline presented in FIG. 2, BrdU was added concurrently with the GLP-2.

intestinal epithelium = conditions: normal and treated rat inflammatory bowel disease models and ischemic reperfusion injured mice; cited from earlier work
[2] = in vivo; cited from earlier work
[3] = phase IIB study; cited from earlier work
[4] = then cultured 48 hours with GLP-2, FIG. 2

Row | Substance | binding to submandibular gland, lung, brain, heart, adipose tissue, skeletal muscle, uterus, ovary, urinary bladder, adrenal gland, thyroid gland, or skin (GLP-2R) | tissues to which radiolabeled GLP-2 binds (GLP-2R) | DNA synthesis as measured by BrdU incorporation ([1]; then cultured 24 hours with GLP-2, FIG. 1) | DNA synthesis as measured by BrdU incorporation [1, 4] | GLP-2 concentration at which BrdU incorporation peaked (bell shaped curve) [1, 4] | effect on intestinal/mucosal mass and damage (intestinal epithelium) | half life in circulation [2] | efficacy in chemotherapy-induced diarrhea [3]
1 | HADGSFSDEMNTILDNLAARDFINWLIQTKITD [GLP-2] | does not bind | binds predominantly to the kidneys, liver, and gastrointestinal tract | dose dependent increase in DNA synthesis | dose dependent increase in DNA synthesis | 0.1 µM | enhanced intestinal/mucosal mass and attenuated damage | 3 to 7 min | –
2 | elsiglutide | – | – | – | – | – | – | – | failed to reach statistical significance
